Numbers after ± are expanded uncertainties.
Legend:
[1] = excess molar enthalpy (molar enthalpy of mixing); xn = mol fraction of the nth substance listed; details: 101 kPa, Liquid, Flow calorimetry
[2] = activity coefficient (dimensionless); of the first substance listed, at infinite dilution; xn = mol fraction of the nth substance listed; details: 101 kPa, Liquid, x1 = 0
[3] = 101.33 kPa, Liquid, Vibrating tube method

CCCCn1cc[n+](C)c1.O=S(=O)([O-])C(F)(F)F [1-butyl-3-methylimidazolium trifluoromethanesulfonate] + C=CCCCC
[1], 413.15 K
Details	excess molar enthalpy [kcal/mol]
x2 = 0.0431	0.0234 ± 0.000574
x2 = 0.0845	0.0443 ± 0.001
x2 = 0.1632	0.0602 ± 0.00134
x2 = 0.2004	0.0576 ± 0.00129
x2 = 0.2364	0.0555 ± 0.00124
x2 = 0.3049	0.0508 ± 0.00115
x2 = 0.3691	0.0468 ± 0.00105
x2 = 0.4292	0.0423 ± 0.000956
x2 = 0.5391	0.0335 ± 0.000789
x2 = 0.637	0.0269 ± 0.000645
x2 = 0.7247	0.0206 ± 0.000526
x2 = 0.8404	0.0125 ± 0.000359
x2 = 0.9405	0.00488 ± 0.000215

CCCCn1cc[n+](C)c1.O=S(=O)([O-])C(F)(F)F [1-butyl-3-methylimidazolium trifluoromethanesulfonate] + CCCCCC
[1], 413.15 K
Details	excess molar enthalpy [kcal/mol]
x2 = 0.0413	0.0571 ± 0.00127
x2 = 0.1199	0.0756 ± 0.00167
x2 = 0.1573	0.0722 ± 0.0016
x2 = 0.1936	0.0687 ± 0.00153
x2 = 0.2287	0.0655 ± 0.00146
x2 = 0.2958	0.0595 ± 0.00134
x2 = 0.359	0.0545 ± 0.00122
x2 = 0.4186	0.0494 ± 0.00112
x2 = 0.5283	0.0413 ± 0.000956
x2 = 0.6269	0.0317 ± 0.000741
x2 = 0.7159	0.0248 ± 0.000598
x2 = 0.8344	0.0148 ± 0.000406
x2 = 0.938	0.00684 ± 0.000263

CCCCn1cc[n+](C)c1.O=S(=O)([O-])C(F)(F)F [1-butyl-3-methylimidazolium trifluoromethanesulfonate] + CCCCCCC
[1]
Details	excess molar enthalpy [kcal/mol]
363.15 K, x2 = 0.02	0.0178 ± 0.000454
363.15 K, x2 = 0.0501	0.0321 ± 0.000765
363.15 K, x2 = 0.1001	0.0421 ± 0.000956
363.15 K, x2 = 0.1502	0.0435 ± 0.001
363.15 K, x2 = 0.2002	0.0418 ± 0.000956
363.15 K, x2 = 0.3003	0.037 ± 0.00086
363.15 K, x2 = 0.4003	0.0312 ± 0.000741
363.15 K, x2 = 0.5003	0.0263 ± 0.000645
363.15 K, x2 = 0.6003	0.0207 ± 0.000526
363.15 K, x2 = 0.7003	0.0152 ± 0.000406
363.15 K, x2 = 0.8002	0.00987 ± 0.000311
363.15 K, x2 = 0.9001	0.00492 ± 0.000215
413.15 K, x2 = 0.0371	0.073 ± 0.0016
413.15 K, x2 = 0.1085	0.0833 ± 0.00184
413.15 K, x2 = 0.143	0.0831 ± 0.00182
413.15 K, x2 = 0.1766	0.0805 ± 0.00177
413.15 K, x2 = 0.2094	0.0775 ± 0.0017
413.15 K, x2 = 0.2729	0.0713 ± 0.00158
413.15 K, x2 = 0.3335	0.0655 ± 0.00146
413.15 K, x2 = 0.3915	0.0611 ± 0.00136
413.15 K, x2 = 0.5002	0.0505 ± 0.00115
413.15 K, x2 = 0.6002	0.0409 ± 0.000932
413.15 K, x2 = 0.6925	0.0319 ± 0.000741
413.15 K, x2 = 0.8183	0.0198 ± 0.000502
413.15 K, x2 = 0.9311	0.0076 ± 0.000263

C=CCCCCC [1-heptene] + CCCCCCCCn1cc[n+](C)c1.O=S(=O)([O-])C(F)(F)F
[2], dilutor technique
Details	activity coefficient
303.21 K	6.11 ± 0.31
313.15 K	6.03 ± 0.3
323.14 K	5.97 ± 0.3
333.12 K	5.89 ± 0.29

C=CCCCCC [1-heptene] + CCCCCCn1cc[n+](C)c1.O=S(=O)([O-])C(F)(F)F
activity coefficient, [2]
Details	303.14 K	303.16 K	313.15 K	313.17 K	323.15 K	333.14 K	333.18 K
Chromatography	11.2 ± 0.76	–	10.8 ± 0.74	–	10.6 ± 0.72	10.4 ± 0.71	–
dilutor technique	–	11 ± 0.55	–	10.6 ± 0.53	10.4 ± 0.52	–	10.1 ± 0.5

C=CCCCCC [1-heptene] + CCCCn1cc[n+](C)c1.O=S(=O)([O-])C(F)(F)F
activity coefficient, [2]
Details	303.17 K	303.45 K	313.13 K	313.15 K	323.14 K	323.16 K	333.15 K	333.16 K
Chromatography	–	21.8 ± 1.5	–	21.3 ± 1.5	20.6 ± 1.4	–	19.9 ± 1.4	–
Dilutor technique	22.1 ± 1.1	–	21.2 ± 1.1	–	–	20.2 ± 1	–	19.7 ± 0.99

CCCCCCn1cc[n+](C)c1.O=S(=O)([O-])C(F)(F)F [1-hexyl-3-methylimidazolium trifluoromethanesulfonate]
[3]
Details	mass density [kg/m3]
308.16 K	1231.4 ± 0.2
313.16 K	1227.6 ± 0.2
318.16 K	1223.8 ± 0.2
323.16 K	1220 ± 0.2
328.16 K	1216.2 ± 0.2
333.16 K	1212.5 ± 0.2
338.16 K	1208.7 ± 0.2
343.16 K	1205 ± 0.2
348.15 K	1201.3 ± 0.2

CCCCCCn1cc[n+](C)c1.O=S(=O)([O-])C(F)(F)F [1-hexyl-3-methylimidazolium trifluoromethanesulfonate] + C=CCCCC
[1], 413.15 K
Details	excess molar enthalpy [kcal/mol]
x2 = 0.0407	0.00805 ± 0.000287
x2 = 0.0604	0.0117 ± 0.000335
x2 = 0.0797	0.0159 ± 0.00043
x2 = 0.0987	0.0205 ± 0.000526
x2 = 0.1172	0.0245 ± 0.000598
x2 = 0.1353	0.0282 ± 0.000669

CCCCCCCCn1cc[n+](C)c1.O=S(=O)([O-])C(F)(F)F [1-octyl-3-methylimidazolium trifluoromethanesulfonate]
[3]
Details	mass density [kg/m3]
293.15 K	1197 ± 0.2
298.15 K	1193.2 ± 0.2
303.15 K	1189.5 ± 0.2
308.14 K	1185.8 ± 0.2
313.15 K	1182.1 ± 0.2
318.15 K	1178.4 ± 0.2
323.14 K	1174.7 ± 0.2
328.14 K	1171.1 ± 0.2
333.14 K	1167.4 ± 0.2
338.14 K	1163.7 ± 0.2
343.15 K	1160.1 ± 0.2
348.15 K	1156.5 ± 0.2
353.14 K	1152.9 ± 0.2

Reference: the NIST ThermoML archive (doi:10.1016/j.fluid.2010.02.010)
